Test results taken from US9884043B2, “RORgammaT inhibitors” (Merck Sharp & Dohme Corp., priority 2011, dated 2018).

Each compound was assayed against T1, HIS-tagged RORγ-LBD (Homo sapiens, UniProt P51449) (assay: TR-FRET assay (Protocol C), purified RORγ-LBD / biotinylated SRC1 LXXLL peptide). Conditions: purified RORγ-LBD 3 nM, SRC1 peptide 100 nM, overnight at 4° C.
T1 construct: HIS-tagged RORγ-LBD was recombinantly expressed in SF9 cells using a baculovirus expression system; made in house; host or cells: SF9 cells, baculovirus; crude lysate used
T1 sequence (P51449 269-508 limits assumed): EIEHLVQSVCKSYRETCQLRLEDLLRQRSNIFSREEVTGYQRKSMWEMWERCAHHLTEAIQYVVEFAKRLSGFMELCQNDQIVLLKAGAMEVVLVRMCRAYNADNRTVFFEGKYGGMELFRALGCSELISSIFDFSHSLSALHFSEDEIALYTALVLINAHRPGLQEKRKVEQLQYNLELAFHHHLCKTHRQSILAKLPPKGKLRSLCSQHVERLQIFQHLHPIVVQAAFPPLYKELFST
Type: biochemical
Excerpt: Activation of RORgammaT activity can be measured using e.g. biochemical TR-FRET assay. In such an assay, interaction of cofactor-derived peptides with human RORgammaT-Ligand Binding Domain (LBD) can be measured. The TR-FRET technique is a sensitive biochemical proximity assay that will give information concerning the interaction of a ligand with the LBD, in the presence of cofactor derived peptides (Zhou et al., Methods 25:54-61, 2001).
To identify novel antagonists of RORgammaT, an assay was developed which employs the interaction of RORgammaT with its co-activator peptide SRC1_2. This peptide mimics the recruitment of co-activators to RORgammaT through its interaction with the LXXLL (SEQ ID NO:2) (eg NR box) motifs (Xie et al., J. Immunol. 175: 3800-09, 2005; Kurebayashi et al., Biochem. Biophys. Res. Commun. 315: 919-27, 2004; Jin et al., Mol. Endocrinology 24:923-29, 2010). The assay was run following three slightly different protocols, i.e. Protocol A, Protocol B, and Protocol C, which are described below.
TR-Fret Assay (Protocol C)
HIS-tagged RORγ-LBD protein was expressed in SF9 cells using a baculovirus expression system. The RORγ-LBD protein was purified by glutathione sepharose chromatography. Separately, SF9 cells not expressing any recombinant protein were lysed and the lysate was added to the purified RORγ-LBD at 0.25 μl lysate (from 10,000 SF9 cells)/nM purified protein. The mixture was then diluted in assay buffer (50 mM Tris pH 7.0, 50 mM KCl, 1 mM EDTA, 0.1 mM DTT) to obtain RORγ-LBD final concentration of 3 nM in 384-well assay plate.
Compounds to be tested were injected to the assay plate using Acoustic Droplet Ejection technology by Echo 550 liquid handler (Labcyte, Calif.). A stock of biotinylated-LXXLL (SEQ ID NO:2) peptide from coactivator SRC1 (Biotin-[…]) (SEQ ID NO: 1) was prepared in assay buffer and added to each well (100 nM final concentration). A solution of Europium tagged anti-HIS antibody (1.25 nM final concentration) and APC conjugated streptavidin (8 nM final concentration) were also added to each well.
The final assay mixture was incubated for overnight at 4° C., and the fluorescence signal was measured on an Envision plate reader: (Excitation filter=340 nm; APC emission=665 nm; Europium emission=615 nm; dichroic mirror=D400/D630; delay time=100 μs, integration time=200 μs). IC50 values for test compounds were calculated from the quotient of the fluorescence signal at 665 nm divided by the fluorescence signal at 615 nm.

Row | Structure (SMILES) | IC50
1 | COc1cccc(F)c1C(=O)n1nc(-c2ccc(C(=O)O)cc2F)c2cccc(F)c21 [Example 24AW, 3-fluoro-4-(7-fluoro-1-(2-fluoro-6-methoxybenzoyl)-1H-indazol-3-yl)benzoic acid] | 50 to 500 nM
2 | COc1cccc(F)c1C(=O)n1nc(-c2ccc(C(=O)O)cc2F)c2ccccc21 [Example 24AU, sodium 3-fluoro-4-(1-(2-fluoro-6-methoxybenzoyl)-1H-indazol-3-yl)benzoate] | < 50 nM
3 | O=C(O)c1cc(-c2nn(C(=O)c3c(Cl)cccc3C(F)(F)F)c3cccnc23)ccc1O [Example 24AL, 5-(1-(2-chloro-6-(trifluoromethyl)-benzoyl)-1H-pyrazolo[4,3-b]pyridin-3-yl)-2-hydroxybenzoic acid] | > 10000 nM

The next lines start with the values.

Row | IC50 | Structure (SMILES)
4 | < 50 nM | O=C(O)c1ccc(-c2nn(C(=O)c3c(Cl)cccc3C(F)(F)F)c3cc(C(=O)N4CCC4)ccc23)cc1 [Example 25W, 4-(6-(azetidine-1-carbonyl)-1-(2-chloro-6-(trifluoromethyl)benzoyl)-1H-indazol-3-yl)benzoic acid]
5 | < 50 nM | O=C(O)c1cc(F)c(-c2nn(C(=O)c3c(Cl)cccc3C(F)(F)F)c3cccc(F)c23)cc1O [Example 26F, 4-(1-(2-chloro-6-(trifluoromethyl)benzoyl)-4-fluoro-1H-indazol-3-yl)-5-fluoro-2-hydroxybenzoic acid]
6 | < 50 nM | O=C(O)c1ccc(-c2nn(C(=O)c3c(Cl)cccc3C(F)(F)F)c3cc(C(=O)N4CCCC4)ccc23)cc1 [Example 25V, 4-(1-(2-chloro-6-(trifluoromethyl)benzoyl)-6-(pyrrolidine-1-carbonyl)-1H-indazol-3-yl)benzoic acid]
7 | < 50 nM | COCCN(C)C(=O)c1ccc2c(-c3ccc(C(=O)O)cc3F)nn(C(=O)c3c(Cl)cccc3C(F)(F)F)c2c1 [Example 25S, 4-(1-(2-chloro-6-(trifluoromethyl)benzoyl)-6-((2-methoxyethyl) (methyl)carbamoyl)-1H-indazol-3-yl)-3-fluorobenzoic acid]
8 | < 50 nM | O=C(O)c1ccc(-c2nn(C(=O)c3c(Cl)cccc3C(F)(F)F)c3cc(C(=O)N4CC(F)C4)ccc23)cc1 [Example 25T, 4-(1-(2-chloro-6-(trifluoromethyl)benzoyl)-6-(3-fluoroazetidine-1-carbonyl)-1H-indazol-3-yl)benzoic acid]
